The source of these data is PMC6797481, “Identification of an allosteric binding site on the human glycine transporter, GlyT2, for bioactive lipid analgesics” (eLife, 2019).

Series [1] concerns the target T1, GlyT2 WT (Homo sapiens, UniProt Q9Y345).
T1 sequence (Q9Y345 1-797): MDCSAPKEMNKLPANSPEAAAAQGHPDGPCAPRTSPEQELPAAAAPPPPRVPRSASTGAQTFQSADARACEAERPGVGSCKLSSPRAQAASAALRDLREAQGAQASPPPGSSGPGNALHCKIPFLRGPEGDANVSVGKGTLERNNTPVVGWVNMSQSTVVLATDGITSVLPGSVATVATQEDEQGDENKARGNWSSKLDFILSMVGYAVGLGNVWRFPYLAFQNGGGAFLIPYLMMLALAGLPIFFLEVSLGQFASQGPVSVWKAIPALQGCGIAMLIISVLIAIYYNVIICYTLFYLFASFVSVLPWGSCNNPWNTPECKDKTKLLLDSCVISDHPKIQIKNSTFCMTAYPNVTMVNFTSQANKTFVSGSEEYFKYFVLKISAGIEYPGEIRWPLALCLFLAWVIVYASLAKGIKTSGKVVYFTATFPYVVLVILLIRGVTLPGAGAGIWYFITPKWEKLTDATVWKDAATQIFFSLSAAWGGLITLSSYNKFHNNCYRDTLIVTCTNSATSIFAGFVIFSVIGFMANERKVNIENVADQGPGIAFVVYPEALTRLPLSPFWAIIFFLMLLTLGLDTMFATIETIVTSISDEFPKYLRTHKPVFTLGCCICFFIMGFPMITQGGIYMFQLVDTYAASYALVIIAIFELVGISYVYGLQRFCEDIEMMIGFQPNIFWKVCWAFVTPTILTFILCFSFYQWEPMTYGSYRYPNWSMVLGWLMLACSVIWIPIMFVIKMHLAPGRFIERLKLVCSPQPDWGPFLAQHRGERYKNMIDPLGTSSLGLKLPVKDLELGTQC
The following applies: read-out: Glycine EC50, glycine transport, mean ± SEM. How it is done: (§1) Human GlyT1b or GlyT2a (herein referred to as GlyT1 and GlyT2) cDNA were sub-cloned into the plasmid oocyte transcription vector (pOTV). Site-directed mutagenesis was performed using traditional PCR techniques, and sequences confirmed by the Australian Genome Research Facility (Sydney, Australia). WT and mutant plasmid DNA were linearised with SpeI (New England Biolabs (Genesearch) Arundel, Australia) and RNA transcribed by T7 RNA polymerase using the mMessagemMachine kit (Ambion, TX, USA).
(§2) Oocytes were extracted from female Xenopus laevis frogs and detached from follicle cell containing lobes by digestion with 2 mg/mL collagenase A (Boehringer, Mannheim, Germany). Defoliculated stage V-VI oocytes were injected with 4.6 ng of cRNA encoding WT or mutant transporter (Drummond Nanoinject, Drummond Scientific Co., Broomall, PA, USA). Surgical proceedures have been approved by the University of Sydney Animal Ethics Committee (protocol 2016/970). […]
(§3) 2–5 days following injection, glycine transport currents were measured at −60 mV using Geneclamp 500 amplifier (Axon Instruments, Foster City, CA, USA) with a Powerlab 2/20 chart recorder (ADInstruments, Sydney, Australia) and chart software (ADInstruments). All data were subsequently analysed using GraphPad Prism 7.02 (GraphPad Software, San Diego, CA). […]

In series [2] the test system is GlyT1 WT. The following applies: read-out: Glycine EC50, glycine transport. How it is done:
as §1, §2, §3

On the set-up of series [3]: method as in Mostyn et al., 2019. Conditions: ref Mostyn et al., 2019; cited from earlier work.
The subject of series [4] is rat model of neuropathic pain. More on the design: method as in Mostyn et al., 2019. Conditions: ref Mostyn et al., 2019; cited from earlier work.

Consider `NCC(=O)O` [Glycine], for which the results for the EC50 in series [1] and in series [2] were 14.5 ± 2.6 µM and 14.4 ± 1.2 µM, respectively.

As for oleoyl d-Lysine, in series [3], the metabolic stability entry was “metabolically stable”. In series [4], the analgesia result is reported as “produces analgesia” and the side effects result is reported as “minimal side effects”.
